This is an account of results in publication PMC10518717, “High-Throughput Screening and Proteomic Characterization of Compounds Targeting Myeloid-Derived Suppressor Cells” (Molecular & Cellular Proteomics : MCP, 2023).

The structures appear in SMILES notation. Read-outs that look alike come from different tables or passages of the source.

For the assay, the system named is NUP-MDSC. The assay can be described thus: Secondary mouse MDSC screen (dose-dependent; IFNγ secretion and T cell proliferation). Type of assay: cell-based. Conditions: for EC50: Mus musculus, NUP-MDSC/CD8+ T cell coculture; for activity in the NUP-MDSC assay (proliferation and INFγ secretion of mouse CD8+ T cells): dose-dependent confirmation screen. The protocol:
Compound source plates (REMP-PP#180030) were pre-prepared by adding 500 nl compound solution (5 mmol/l starting concentration) and 11.5 μl Hepes (20 mmol/l) buffer to achieve a final ready to screen concentration of 0.2 mmol/l. Cocultured cell assay plates were prepared by dispensing 20 μl of differentiated MDSC cells (12,500 cells/cavity) and 20 μl of CD8+ T-cells with a MultidropCombi (12,500 cells/cavity). In the next step, 2 μl of pre-prepared compound solution was transferred via BC i5 to the cell plate followed by 3days incubation at 37 °C and 5% CO2. Afterward, the supernatant in cell plates were homogenized via orbital shaking at 2000 rpm for 20s and centrifugated with 1650 rpm for 30 s. On a BC i5 pipetting robot, 2 μl supernatant were transferred to a pre-filled (30 μl PBS) assay plate followed by centrifugation and addition of 8 μl IFNγ HTRF detection kit, followed by orbital mixing at 2000 rpm for 20s and an incubation step for 3 days at 37 °C and 5% CO2. Assay plate was analyzed on an PE Envision. Cell plates were centrifuged in parallel with 300g for 60 s and orbital mixed at 2000 rpm for 20 s followed by proliferation analysis via Sartorius IQue2. Effects were normalized against stimulator control mIL-2 and 0.2% dimethyl sulfoxide (DMSO) as neutral control. A hit was defined as a compound with >50% effect in at least one of the measured effects.
Compound source plates (REMP-PP#180030) for dose-dependent secondary screens were pre-prepared by adding […] compound solution (1.0E + 01 mmol/l, 3.2E + 00 mmol/l, 1.0E + 00 mmol/l, 3.2E-01 mmol/l, 1.0E-01 mmol/l, 3.2E-02 mmol/l, 1.0E-02 mmol/l, 3.2E-03 mmol/l, 1.0E-03 mmol/l, 3.2E-04 mmol/l; starting concentration) and 12 μl Hepes (20 mM) buffer to achieve a final ready to screen concentration of 4.0E-02 mmol/l, 1.3E-02 mmol/l, 4.0E-03 mmol/l, 1.3E-03 mmol/l, 4.0E-04 mmol/l, 1.3E-04 mmol/l, 4.0E-05 mmol/l, 1.3E-05 mmol/l, 4.0E-06 mmol/l, and 1.3E-06 mmol/l. All other steps are identical to the described workflow under “Primary mouse MDSC screen”.
After confirming the physiological and pharmacological suitability of the NUP-MDSC model, we developed a high-throughput screen for the identification of potential MDSC modulators (Fig. 4A and supplemental Fig. S3). To accomplish this, mouse NUP-MDSC were generated as described before, co-cultured with freshly isolated mouse CD8+ T cells, which were activated with anti-CD3/anti-CD28 antibodies, and subsequently treated with compounds or DMSO vehicle (supplemental Fig. S4A). After 72 h, T cell activity was assessed by recording T cell proliferation and IFN-γ secretion. […] Compounds were declared hits if reversing the suppression effect of NUP-MDSC on T cells with ≥50% in either readout resulting in 392 hit compounds (Fig. 4B). […]

With `CCOC(=O)c1nnn(-c2nn3nnnc3c3ccccc23)c1C` [compound 2], the “activity in the NUP-MDSC assay (proliferation and INFγ secretion of mouse CD8+ T cells)” value was “rescued the proliferation and INFγ secretion”. Moreover, the EC50 (Fig. 4D, read-out: T cell proliferation EC50) stood at 6.5 µM. In addition, the EC50 (read-out: EC50, based on INFγ secretion of secondary mouse screen) turned out to be 2.6 µM.
For the compound `c1ccc2c(c1)c(-n1ccnc1)nn1nnnc21` [compound 3], the “activity in the NUP-MDSC assay (proliferation and INFγ secretion of mouse CD8+ T cells)” value is “inactive”.
